Experimental data reported in ChEMBL document CHEMBL4196150, “Structurally Diverse Highly Oxygenated Triterpenoids from the Roots of Ailanthus altissima and Their Cytotoxicity” (J Nat Prod, 2018).

Tests used:
Assay type in all cases: functional, cell-based
A549 = experiment: Cytotoxicity against human A549 cells after 72 hrs by MTT assay; details: A549, 72 h
HeLa = experiment: Cytotoxicity against human HeLa cells after 72 hrs by MTT assay
786-0 = experiment: Cytotoxicity against human 786-O cells after 72 hrs by MTT assay; details: 786-0, 72 h
HepG2 = experiment: Cytotoxicity against human HepG2 cells after 72 hrs by MTT assay; details: HepG2, 72 h

Compound: C/C=C(\C)C(=O)O[C@@H]1C[C@]2(C)C(=CC[C@H]2C2=CO[C@@H]([C@H](O)C(C)(C)O)C2)[C@]2(C)[C@H](O)C[C@H]3C(C)(C)OC(=O)C=C[C@]3(C)[C@@H]12
- IC50 (A549): 39.8 µM
- IC50 (HeLa): 33.2 µM
- IC50 (786-0): 34.4 µM
- IC50 (HepG2): 38.8 µM

Compound: C[C@@H](C[C@@H](O)[C@H](O)C(C)(C)O)[C@@H]1CC[C@]2(C)C3=CC[C@H]4C(C)(C)C(=O)CC[C@]4(C)[C@H]3CC[C@@]12C
- IC50 (A549): > 40 µM
- IC50 (HeLa): > 40 µM
- IC50 (786-0): > 40 µM
- IC50 (HepG2): > 40 µM

Compound: COC(C)(C)[C@@H](O)[C@H]1C=C([C@@H]2CC(=O)[C@@H]3[C@@]2(C)CC[C@@H]2[C@@]4(C)C=CC(=O)OC(C)(C)[C@@H]4C[C@@H](OC(C)=O)[C@]23C)C(=O)O1
- IC50 (A549): > 40 µM
- IC50 (HeLa): > 40 µM
- IC50 (786-0): > 40 µM
- IC50 (HepG2): > 40 µM

Compound: C/C=C(\C)C(=O)O[C@@H]1C[C@]2(C)C(=CC[C@H]2[C@@H]2C[C@H]([C@H](O)C(C)(C)OC)O[C@H]2OC)[C@]2(C)[C@H](O)C[C@H]3C(C)(C)OC(=O)C=C[C@]3(C)[C@@H]12
- IC50 (A549): > 40 µM
- IC50 (HeLa): > 40 µM
- IC50 (786-0): > 40 µM
- IC50 (HepG2): > 40 µM

Compound: C/C=C(\C)C(=O)O[C@@H]1C[C@]2(C)C(=CC[C@H]2[C@@H]2C[C@H]([C@H](O)C(C)(C)OC)O[C@@H]2OC)[C@]2(C)[C@H](O)C[C@H]3C(C)(C)OC(=O)C=C[C@]3(C)[C@@H]12
- IC50 (A549): 12.5 µM
- IC50 (HeLa): 38.4 µM
- IC50 (786-0): 8.2 µM
- IC50 (HepG2): 38.8 µM

Compound: CC1(C)C(=O)CC[C@]2(C)[C@H]3C[C@@H](O)[C@@H]4[C@@H]([C@]5(C)CCC(=O)O5)CC[C@@]4(C)[C@]3(C)CC[C@@H]12
- IC50 (A549): > 40 µM
- IC50 (HeLa): > 40 µM
- IC50 (786-0): > 40 µM
- IC50 (HepG2): > 40 µM

Compound: CC(C)(O)[C@@H]1OC[C@H]([C@@H]2CC[C@]3(C)C4=CC[C@H]5C(C)(C)C(=O)CC[C@]5(C)[C@H]4CC[C@@]23C)C[C@H]1O
- IC50 (A549): > 40 µM
- IC50 (HeLa): > 40 µM
- IC50 (786-0): > 40 µM
- IC50 (HepG2): > 40 µM

Compound: C/C=C(\C)C(=O)O[C@@H]1C[C@]2(C)C(=CC[C@H]2C2=C[C@H]([C@H](O)C(C)(C)OC)OC2=O)[C@]2(C)[C@H](O)C[C@H]3C(C)(C)OC(=O)C=C[C@]3(C)[C@@H]12
- IC50 (A549): > 40 µM
- IC50 (HeLa): > 40 µM
- IC50 (786-0): > 40 µM
- IC50 (HepG2): > 40 µM

Compound: COc1cc2c(c(OC)c1OC)-c1ccc(OC)c(=O)cc1[C@@H](NC(C)=O)CC2 [COLCHICINE]
- IC50 (A549): 0.043 µM
- IC50 (786-0): 0.022 µM
- IC50 (HepG2): 0.078 µM

Compound: CC(C)(O)[C@@H]1OC[C@H]([C@@H]2CC[C@]3(C)C4=CC(=O)[C@H]5C(C)(C)C(=O)CC[C@]5(C)[C@H]4CC[C@@]23C)C[C@H]1O
- IC50 (A549): > 40 µM
- IC50 (HeLa): > 40 µM
- IC50 (786-0): > 40 µM
- IC50 (HepG2): > 40 µM

Compound: C=C(C)[C@H](O)[C@H]1C=C([C@@H]2CC=C3[C@]4(C)[C@H](O)C[C@H]5C(C)(C)OC(=O)C=C[C@]5(C)[C@H]4[C@H](OC(=O)/C(C)=C/C)C[C@]32C)C(=O)O1
- IC50 (A549): > 40 µM
- IC50 (HeLa): > 40 µM
- IC50 (786-0): > 40 µM
- IC50 (HepG2): > 40 µM

Compound: C/C=C(\C)C(=O)O[C@@H]1C[C@]2(C)C(=CC[C@H]2C2=C[C@H]([C@H](O)C(C)(C)O)OC2=O)[C@]2(C)[C@H](O)C[C@H]3C(C)(C)OC(=O)C=C[C@]3(C)[C@@H]12
- IC50 (A549): > 40 µM
- IC50 (HeLa): > 40 µM
- IC50 (786-0): > 40 µM
- IC50 (HepG2): > 40 µM

Compound: CC1(C)C(=O)CC[C@]2(C)[C@H]3CC[C@@H]4[C@@H]([C@]5(C)CCC(=O)O5)CC[C@@]4(C)[C@]3(C)CC[C@@H]12 [CABRALELACTONE]
- IC50 (A549): > 40 µM
- IC50 (HeLa): > 40 µM
- IC50 (786-0): > 40 µM
- IC50 (HepG2): > 40 µM

Compound: COC(=O)CC[C@]1(C)[C@H]2CC[C@@]3(C)[C@H]([C@@H](C)C[C@@H](O)[C@H](O)C(C)(C)O)CC[C@]3(C)C2=CC[C@H]1C(C)(C)O
- IC50 (A549): 38.6 µM
- IC50 (HeLa): 38.4 µM
- IC50 (786-0): 27.4 µM
- IC50 (HepG2): 35.5 µM
